Measured values reported in ChEMBL document CHEMBL3994622, “Design and synthesis of new RAF kinase-inhibiting antiproliferative quinoline derivatives. Part 2: Diarylurea derivatives” (Eur J Med Chem, 2017).

Legend:
Assay type in all cases: functional
[1] = system: CCRF-CEM; experiment: Growth inhibition of human CCRF-CEM cells assessed as cell growth at 10 uM incubated for 48 hrs by sulforhodamine B assay relative to control; details: read-out: Activity
[2] = system: HL-60(TB); experiment: Growth inhibition of human HL-60(TB) cells assessed as cell growth at 10 uM incubated for 48 hrs by sulforhodamine B assay relative to control; details: HL-60, 48 h, read-out: Activity
[3] = system: MOLT-4; experiment: Growth inhibition of human MOLT4 cells assessed as cell growth at 10 uM incubated for 48 hrs by sulforhodamine B assay relative to control; details: MOLT-4, 48 h, read-out: Activity
[4] = system: RPMI-8226; experiment: Growth inhibition of human RPMI8226 cells assessed as cell growth at 10 uM incubated for 48 hrs by sulforhodamine B assay relative to control; details: RPMI-8226, 48 h, read-out: Activity
[5] = system: SR; experiment: Growth inhibition of human SR cells assessed as cell growth at 10 uM incubated for 48 hrs by sulforhodamine B assay relative to control; details: read-out: Activity
[6] = system: A549; experiment: Growth inhibition of human A549/ATCC cells assessed as cell growth at 10 uM incubated for 48 hrs by sulforhodamine B assay relative to control; details: A549, 48 h, read-out: Activity
[7] = system: EKVX; experiment: Growth inhibition of human EKVX cells assessed as cell growth at 10 uM incubated for 48 hrs by sulforhodamine B assay relative to control; details: read-out: Activity
[8] = system: HOP-92; experiment: Growth inhibition of human HOP92 cells assessed as cell growth at 10 uM incubated for 48 hrs by sulforhodamine B assay relative to control; details: HOP-92, 48 h, read-out: Activity
[9] = system: NCI-H23; experiment: Growth inhibition of human NCI-H23 cells assessed as cell growth at 10 uM incubated for 48 hrs by sulforhodamine B assay relative to control; details: NCI-H23, 48 h, read-out: Activity
[10] = system: NCI-H460; experiment: Growth inhibition of human NCI-H460 cells assessed as cell growth at 10 uM incubated for 48 hrs by sulforhodamine B assay relative to control; details: NCI-H460, 48 h, read-out: Activity
[11] = system: HCT-15; experiment: Growth inhibition of human HCT15 cells assessed as cell growth at 10 uM incubated for 48 hrs by sulforhodamine B assay relative to control; details: HCT-15, 48 h, read-out: Activity
[12] = system: KM12; experiment: Growth inhibition of human KM12 cells assessed as cell growth at 10 uM incubated for 48 hrs by sulforhodamine B assay relative to control; details: KM12, 48 h, read-out: Activity
[13] = system: SW-620; experiment: Growth inhibition of human SW620 cells assessed as cell growth at 10 uM incubated for 48 hrs by sulforhodamine B assay relative to control; details: SW-620, 48 h, read-out: Activity
[14] = system: SF-268; experiment: Growth inhibition of human SF268 cells assessed as cell growth at 10 uM incubated for 48 hrs by sulforhodamine B assay relative to control; details: SF-268, 48 h, read-out: Activity
[15] = system: SF-539; experiment: Growth inhibition of human SF539 cells assessed as cell growth at 10 uM incubated for 48 hrs by sulforhodamine B assay relative to control; details: SF-539, 48 h, read-out: Activity
[16] = system: SNB-19; experiment: Growth inhibition of human SNB19 cells assessed as cell growth at 10 uM incubated for 48 hrs by sulforhodamine B assay relative to control; details: SNB-19, 48 h, read-out: Activity
[17] = system: U-251; experiment: Growth inhibition of human U251 cells assessed as cell growth at 10 uM incubated for 48 hrs by sulforhodamine B assay relative to control; details: U-251, 48 h, read-out: Activity
[18] = system: LOX IMVI; experiment: Growth inhibition of human LOXIMVI cells assessed as cell growth at 10 uM incubated for 48 hrs by sulforhodamine B assay relative to control; details: read-out: Activity
[19] = system: Malme-3M; experiment: Growth inhibition of human MALME-3M cells assessed as cell growth at 10 uM incubated for 48 hrs by sulforhodamine B assay relative to control; details: read-out: Activity
[20] = system: M14; experiment: Growth inhibition of human M14 cells assessed as cell growth at 10 uM incubated for 48 hrs by sulforhodamine B assay relative to control; details: M14, 48 h, read-out: Activity
[21] = system: SK-MEL-28; experiment: Growth inhibition of human SK-MEL-28 cells assessed as cell growth at 10 uM incubated for 48 hrs by sulforhodamine B assay relative to control; details: SK-MEL-28, 48 h, read-out: Activity
[22] = system: SK-MEL-5; experiment: Growth inhibition of human SK-MEL-5 cells assessed as cell growth at 10 uM incubated for 48 hrs by sulforhodamine B assay relative to control; details: SK-MEL-5, 48 h, read-out: Activity
[23] = system: OVCAR-4; experiment: Growth inhibition of human OVCAR4 cells assessed as cell growth at 10 uM incubated for 48 hrs by sulforhodamine B assay relative to control; details: OVCAR-4, 48 h, read-out: Activity
[24] = system: OVCAR-8; experiment: Growth inhibition of human OVCAR8 cells assessed as cell growth at 10 uM incubated for 48 hrs by sulforhodamine B assay relative to control; details: OVCAR-8, 48 h, read-out: Activity
[25] = system: NCI/ADR-RES; experiment: Growth inhibition of human NCI/ADR-RES cells assessed as cell growth at 10 uM incubated for 48 hrs by sulforhodamine B assay relative to control; details: read-out: Activity
[26] = system: SK-OV-3; experiment: Growth inhibition of human SKOV3 cells assessed as cell growth at 10 uM incubated for 48 hrs by sulforhodamine B assay relative to control; details: SK-OV-3, 48 h, read-out: Activity
[27] = system: 786-0; experiment: Growth inhibition of human 786-0 cells assessed as cell growth at 10 uM incubated for 48 hrs by sulforhodamine B assay relative to control; details: 786-0, 48 h, read-out: Activity
[28] = system: ACHN; experiment: Growth inhibition of human ACHN cells assessed as cell growth at 10 uM incubated for 48 hrs by sulforhodamine B assay relative to control; details: read-out: Activity
[29] = system: RXF 393; experiment: Growth inhibition of human RXF393 cells assessed as cell growth at 10 uM incubated for 48 hrs by sulforhodamine B assay relative to control; details: RXF 393, 48 h, read-out: Activity
[30] = system: SN12C; experiment: Growth inhibition of human SN12C cells assessed as cell growth at 10 uM incubated for 48 hrs by sulforhodamine B assay relative to control; details: read-out: Activity
[31] = system: PC-3; experiment: Growth inhibition of human PC3 cells assessed as cell growth at 10 uM incubated for 48 hrs by sulforhodamine B assay relative to control; details: PC-3, 48 h, read-out: Activity
[32] = system: DU-145; experiment: Growth inhibition of human DU145 cells assessed as cell growth at 10 uM incubated for 48 hrs by sulforhodamine B assay relative to control; details: DU-145, 48 h, read-out: Activity
[33] = system: Hs-578T; experiment: Growth inhibition of human Hs 578T cells assessed as cell growth at 10 uM incubated for 48 hrs by sulforhodamine B assay relative to control; details: read-out: Activity
[34] = system: T47D; experiment: Growth inhibition of human T47D cells assessed as cell growth at 10 uM incubated for 48 hrs by sulforhodamine B assay relative to control; details: read-out: Activity

Compound | growth at 10 µM [1] [%] | growth at 10 µM [4] [%] | growth at 10 µM [6] [%] | growth at 10 µM [7] [%] | growth at 10 µM [9] [%] | growth at 10 µM [10] [%] | growth at 10 µM [11] [%] | growth at 10 µM [12] [%] | growth at 10 µM [13] [%] | growth at 10 µM [14] [%] | growth at 10 µM [15] [%] | growth at 10 µM [16] [%] | growth at 10 µM [17] [%] | growth at 10 µM [18] [%] | growth at 10 µM [19] [%] | growth at 10 µM [20] [%] | growth at 10 µM [21] [%] | growth at 10 µM [22] [%] | growth at 10 µM [24] [%] | growth at 10 µM [25] [%] | further results
COc1cc2cc(Oc3ccc(NC(=O)Nc4ccc(Cl)c(Cl)c4)cc3)c(C)nc2cc1OC | 13.3 | 4.2 | 4.35 | 21 | 8.26 | 3.68 | 18.9 | 13.9 | 23.4 | 43.7 | 38.5 | 28.6 | -32.3 | 23.1 | 14.9 | 25.8 | 44.6 | -35 | 15 | 17.1 | growth at 10 µM [2]: 9.64%; growth at 10 µM [3]: 3.69%; growth at 10 µM [5]: 18%; growth at 10 µM [8]: -9.31%; growth at 10 µM [23]: 31.9%; growth at 10 µM [26]: 28.6%; growth at 10 µM [27]: 20.3%; growth at 10 µM [28]: 16.4%; growth at 10 µM [29]: 22.3%; growth at 10 µM [30]: 22.1%; growth at 10 µM [31]: 4.12%; growth at 10 µM [32]: 24.8%; growth at 10 µM [33]: 45.1%; growth at 10 µM [34]: 60.9%
COc1cc2cc(Oc3ccc(NC(=O)Nc4cccc(C(F)(F)F)c4)cc3)c(C)nc2cc1OC | 6.41 | -5.94 | 3.09 | 15.4 | 6.78 | 2.68 | 15.2 | -10.2 | 17.5 | 29.2 | 11.7 | 31.4 | -85.7 | 9.78 | 7.22 | 22.6 | 26.7 | -86.1 | 8.32 | 6.98 | growth at 10 µM [2]: -24.8%; growth at 10 µM [3]: 0.81%; growth at 10 µM [5]: -6.62%; growth at 10 µM [8]: -29.5%; growth at 10 µM [23]: 31.7%; growth at 10 µM [26]: 3.35%; growth at 10 µM [27]: 15.1%; growth at 10 µM [28]: 11.2%; growth at 10 µM [29]: -13.1%; growth at 10 µM [30]: 17.2%; growth at 10 µM [31]: 0.08%; growth at 10 µM [32]: 26.7%; growth at 10 µM [33]: 22.6%; growth at 10 µM [34]: 27.8%
COc1cc2cc(Sc3ccc(NC(=O)Nc4ccc(Cl)c(Cl)c4)cc3)c(C)nc2cc1OC | 50.7 | 54.5 | 59.5 | 69.4 | 84.7 | 74.6 | 75.9 | 74.5 | 89.9 | 72.6 | 86 | 84.9 | 70 | 94.7 | 89.9 | 81.3 | 96.5 | 71 | 83.6 | 86.2 | growth at 10 µM [2]: 77.3%; growth at 10 µM [3]: 38.1%; growth at 10 µM [5]: 52.7%; growth at 10 µM [8]: 71.2%; growth at 10 µM [23]: 78.2%; growth at 10 µM [26]: 55%; growth at 10 µM [27]: 73.4%; growth at 10 µM [28]: 72.6%; growth at 10 µM [29]: 84.4%; growth at 10 µM [30]: 78.8%; growth at 10 µM [31]: 56.1%; growth at 10 µM [32]: 75.5%; growth at 10 µM [33]: 85.6%
COc1cc2cc(Oc3ccc(NC(=O)Nc4cc(C(F)(F)F)cc(C(F)(F)F)c4)cc3)c(C)nc2cc1OC | 0.19 | 1.15 | 5.93 | 2.88 | 2.28 | 7 | 2.75 | 5.61 | 15.9 | 15.3 | -41 | 15.5 | -26.5 | 1.98 | -3.13 | 9.04 | 7.66 | -58.5 | 14.2 | 7.03 | growth at 10 µM [8]: -25.4%; growth at 10 µM [23]: 27.9%; growth at 10 µM [26]: -1.05%; growth at 10 µM [27]: -16.6%; growth at 10 µM [28]: 5.82%; growth at 10 µM [29]: -24.5%; growth at 10 µM [30]: 7.69%; growth at 10 µM [31]: 6.82%; growth at 10 µM [32]: 19.5%; growth at 10 µM [33]: -10.7%; growth at 10 µM [34]: 7.52%
COc1cc2cc(Oc3ccc(NC(=O)Nc4ccccc4)cc3)c(C)nc2cc1OC | 55.2 | 38.8 | 58.4 | 63.4 | 87.2 | 69 | 64.1 | 70.3 | 105 | 88.1 | 78 | 94.8 | 48 | 82.1 | 86.4 | 93.7 | 96.2 | 60.8 | 71.9 | 84.3 | growth at 10 µM [2]: 70.5%; growth at 10 µM [3]: 37.9%; growth at 10 µM [5]: 42.6%; growth at 10 µM [23]: 70.2%; growth at 10 µM [26]: 48.4%; growth at 10 µM [27]: 94.8%; growth at 10 µM [28]: 84.5%; growth at 10 µM [29]: 76.7%; growth at 10 µM [30]: 70.7%; growth at 10 µM [31]: 60.4%; growth at 10 µM [32]: 88.7%; growth at 10 µM [33]: 78%; growth at 10 µM [34]: 97.1%
COc1cc2cc(Oc3ccc(NC(=O)Nc4ccc(C)cc4)cc3)c(C)nc2cc1OC | 101 | 101 | 102 | 107 | 95.5 | 108 | 103 | 104 | 107 | 80.2 | 108 | 97.1 | 99.9 | 102 | 94.6 | 124 | 109 | 100 | 87.4 | 107 | growth at 10 µM [2]: 93%; growth at 10 µM [3]: 82.4%; growth at 10 µM [5]: 83.1%; growth at 10 µM [26]: 87.8%; growth at 10 µM [27]: 126%; growth at 10 µM [28]: 103%; growth at 10 µM [29]: 82.1%; growth at 10 µM [30]: 93%; growth at 10 µM [31]: 94.5%; growth at 10 µM [32]: 102%; growth at 10 µM [33]: 76.5%; growth at 10 µM [34]: 101%
